This data set in a line: Half life was determined. In kind it is ADME. The conditions noted are these: rat.

Usually half-life stands for the time needed for the level to fall by half in the phase considered. In turn, `N#Cc1ccc(NCCNCC(=O)N2CCC[C@H]2C#N)nc1` had a half-life of 50 min.

The values are drawn from ChEMBL document CHEMBL1138669, “Dipeptidyl peptidase IV inhibitors for the treatment of diabetes” (J Med Chem, 2004).
